Experimental data from US10323036B2 (Nimbus Lakshmi, Inc., priority 2016, dated 2019).

Biological target: human TYK2 (JH2domain-pseudokinase) (Homo sapiens (Human), UniProt P29597)
Assay: TYK2 JH2 Domain Binding Assay (KINOMEscan)
Conditions: Table 4, JH2 binding assay; read-out: JH2 Kd

Chain of human TYK2 (JH2domain-pseudokinase) (P29597 556-888): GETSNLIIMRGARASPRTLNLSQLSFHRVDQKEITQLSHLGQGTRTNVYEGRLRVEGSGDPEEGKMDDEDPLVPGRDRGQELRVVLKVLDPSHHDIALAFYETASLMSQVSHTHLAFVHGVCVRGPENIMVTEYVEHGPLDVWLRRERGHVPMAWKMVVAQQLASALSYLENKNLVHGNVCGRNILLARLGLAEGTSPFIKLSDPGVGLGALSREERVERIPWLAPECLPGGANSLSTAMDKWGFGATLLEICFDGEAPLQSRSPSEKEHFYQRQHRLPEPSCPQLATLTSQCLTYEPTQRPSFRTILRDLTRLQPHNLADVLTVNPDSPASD

Kd | Structure (SMILES)
0.1 to 0.5 nM | COc1c(Nc2cc(Nc3cc(C)ccn3)nc3[nH]n(C)c(=O)c23)cccc1-c1ncn(C)n1 [Compound I-18, 4-((2-methoxy-3-(1-methyl-1H-1,2,4-triazol-3-yl)phenyl)amino)-2-methyl-6-((4-methylpyridin-2-yl)amino)-1,2-dihydro-3H-pyrazolo[3,4-b]pyridin-3-one]
0.1 to 0.5 nM | COc1c(Cl)cccc1Nc1cc(Nc2ccc(N3CCCC3=O)c(C#N)n2)nc2[nH]n(C)c(=O)c12 [Compound I-134, 6-((4-((3-chloro-2-methoxyphenyl)amino)-2-methyl-3-oxo-2,3-dihydro-1H-pyrazolo[3,4-]pyridin-6-yl)amino)-3-(2-oxopyrrolidin-1-yl)picolinonitrile]
> 10 nM | COc1c(C#N)cccc1Nc1cc(Nc2ccc(C)nn2)nc2[nH]n(C)c(=O)c12 [Compound I-38]
0.1 to 0.5 nM | COc1c(Nc2cc(Nc3cc(C#N)ncn3)nc3[nH]n(C)c(=O)c23)cccc1-c1nnn(C)n1 [Compound I-29, 6-((4-((2-methoxy-3-(2-methyl-2H-tetrazol-5-yl)phenyl)amino)-2-methyl-3-oxo-2,3-dihydro-1H-pyrazolo[3,4-b]pyridin-6-yl)amino)pyrimidine-4-carbonitrile]
1 to 10 nM | COCc1ccnc(Nc2cc(Nc3ccccc3S(C)(=O)=O)c3c(=O)n(C)[nH]c3n2)c1 [Compound I-110, 6-((4-(methoxymethyl)pyridin-2-yl)amino)-2-methyl-4-((2-(methylsulfonyl)phenyl)amino)-1,2-dihydro-3H-pyrazolo[3,4-b]pyridin-3-one]
> 10 nM | COc1c(Nc2cc(Nc3ccc(C)nn3)nc3[nH]n(C)c(=O)c23)cccc1-c1ncn(C)n1 [Compound I-23, 4-((2-methoxy-3-(1-methyl-1H-1,2,4-triazol-3-yl)phenyl)amino)-2-methyl-6-((6-methylpyridazin-3-yl)amino)-1,2-dihydro-3H-pyrazolo[3,4-b]pyridin-3-one]
> 10 nM | Cn1[nH]c2nc(Nc3ccc(N4CCCCC4)cn3)cc(Nc3ccccc3S(C)(=O)=O)c2c1=O [Compound I-118, 2-methyl-4-((2-(methylsulfonyl)phenyl)amino)-6-((5-(piperidin-1-yl)pyridin-2-yl)amino)-1,2-dihydro-3H-pyrazolo[3,4-b]pyridin-3-one]

Structure (SMILES) | Kd
COc1c(Nc2cc(NC(=O)C3CC3)nc3[nH]n(C)c(=O)c23)ccc(C(=O)N2CCCC2)c1F [Compound I-141] | 1 to 10 nM
COc1cc(C(=O)N2CCOCC2)ccc1Nc1cc(NC(=O)C2CC2)nc2[nH]n(C)c(=O)c12 [Compound I-71, N-(4-((2-methoxy-4-(morpholine-4-carbonyl)phenyl)amino)-2-methyl-3-oxo-2,3-dihydro-1H-pyrazolo[3,4-b]pyridin-6-yl)cyclopropanecarboxamide] | 0.5 to 1 nM
COc1c(Cl)cccc1Nc1cc(Nc2ccc(N3CCC3)c(C#N)n2)nc2[nH]n(C)c(=O)c12 [Compound I-144, 3-(azetidin-1-yl)-6-((4-((3-chloro-2-methoxyphenyl)amino)-2-methyl-3-oxo-2,3-dihydro-1H-pyrazolo[3,4-b]pyridin-6-yl)amino)picolinonitrile] | 0.1 to 0.5 nM
Cc1ncc(Nc2cc(Nc3ccc(C4CC4)cc3S(C)(=O)=O)c3c(=O)n(C)[nH]c3n2)nc1C [Compound I-211, 4-((4-cyclopropyl-2-(methylsulfonyl)phenyl)amino)-6-((5,6-dimethylpyrazin-2-yl)amino)-2-methyl-1,2-dihydro-3H-pyrazolo[3,4-b]pyridin-3-one] | 0.5 to 1 nM
COc1c(Nc2cc(Nc3cc(C)c(F)cn3)nc3[nH]n(C)c(=O)c23)cccc1-c1ccn(C)n1 [Compound I-120, 6-((5-fluoro-4-methylpyridin-2-yl)amino)-4-((2-methoxy-3-(1-methyl-1H-pyrazol-3-yl)phenyl)amino)-2-methyl-1,2-dihydro-3H-pyrazolo[3,4-b]pyridin-3-one] | 1 to 10 nM
